Earlier results as cited in patent publication US20030229057A1, “Continuous sulfatase inhibiting progestogen hormone replacement therapy” (priority 2002, published 2003).

Conditions: humans

norgestimate being converted to norelgestromin in vivo: ≥ 80%
Compound: C#C[C@]1(OC(C)=O)CC[C@H]2[C@@H]3CCC4=CC(=NO)CC[C@@H]4[C@H]3CC[C@@]21CC (mixture of isomers) [norgestimate]
